Source: the supplement of paper PMC10307832

How the values were obtained:
Assay in all cases: relative viability (nuclei count vs DMSO), 5 days (fraction); higher = more cells survive
Kobe2602 + Foretinib = compound: C1=CC(=CC=C1NC(=S)NNC2=C(C=C(C=C2[N+](=O)[O-])C(F)(F)F)[N+](=O)[O-])F [Kobe2602] + COc1cc2c(Oc3ccc(NC(=O)C4(C(=O)Nc5ccc(F)cc5)CC4)cc3F)ccnc2cc1OCCCN1CCOCC1 [Foretinib] (partner 0.25 µM)
Summary of the method: (§1)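 For relative viability, nuclei counts in treated wells were divided by those in vehicle wells. Lung cancer cell lines had been pin-tool dosed in 1536-well plates the day after seeding and cultured for 5 days, then fixed and stained in one step (final 0.05% Triton X-100, 1% formaldehyde, 1 ug/ml Hoechst) and imaged at 4×. Doses were one drug alone or a fixed anchor-drug dose plus five library-drug doses (not always all listed) in √10 steps, and values are duplicate-plate medians.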

[1] = compound: COc1cc2nccc(Oc3ccc(NC(=O)C4(C(=O)Nc5ccc(F)cc5)CC4)cc3)c2cc1OC [Cabozantinib] + CCNC(=O)c1noc(-c2cc(C(C)C)c(O)cc2O)c1-c1ccc(CN2CCOCC2)cc1 [Luminespib] (partner 0.01 µM)
Summary of the method: as §1

Cabozantinib + Foretinib = compound: COc1cc2nccc(Oc3ccc(NC(=O)C4(C(=O)Nc5ccc(F)cc5)CC4)cc3)c2cc1OC [Cabozantinib] + COc1cc2c(Oc3ccc(NC(=O)C4(C(=O)Nc5ccc(F)cc5)CC4)cc3F)ccnc2cc1OCCCN1CCOCC1 [Foretinib] (partner 0.25 µM)
Summary of the method: as §1

Zosuquidar + AZD7762 = compound: O[C@@H](COc1cccc2ncccc12)CN1CCN([C@@H]2c3ccccc3[C@@H]3[C@H](c4ccccc42)C3(F)F)CC1 [Zosuquidar] + NC(=O)Nc1cc(-c2cccc(F)c2)sc1C(=O)N[C@H]1CCCNC1 [AZD7762] (partner 0.2 µM)
Summary of the method: as §1

NCI-H2405
relative viability (Kobe2602 + Foretinib; first compound 0.2 µM): 1.05 | relative viability (Kobe2602 + Foretinib; first compound 0.6325 µM): 1.04 | relative viability (Kobe2602 + Foretinib; first compound 2 µM): 1.01 | relative viability (Kobe2602 + Foretinib; first compound 6.325 µM): 1.06 | relative viability (Kobe2602 + Foretinib; first compound 20 µM): 1.07 | relative viability ([1]; first compound 0.02 µM): 0.615 | relative viability ([1]; first compound 0.06325 µM): 0.83 | relative viability ([1]; first compound 0.2 µM): 0.648 | relative viability ([1]; first compound 0.6325 µM): 0.629 | relative viability ([1]; first compound 2 µM): 0.588 | relative viability (Cabozantinib + Foretinib; first compound 0.02 µM): 1.01 | relative viability (Cabozantinib + Foretinib; first compound 0.06325 µM): 1.04 | relative viability (Cabozantinib + Foretinib; first compound 0.2 µM): 1.05 | relative viability (Cabozantinib + Foretinib; first compound 0.6325 µM): 1.05 | relative viability (Cabozantinib + Foretinib; first compound 2 µM): 1.01 | relative viability (Zosuquidar + AZD7762; first compound 0.01 µM): 0.691 | relative viability (Zosuquidar + AZD7762; first compound 0.03162 µM): 0.714 | relative viability (Zosuquidar + AZD7762; first compound 0.1 µM): 0.766 | relative viability (Zosuquidar + AZD7762; first compound 0.3162 µM): 0.739 | relative viability (Zosuquidar + AZD7762; first compound 1 µM): 0.539

NCI-H1915
relative viability (Kobe2602 + Foretinib; first compound 0.2 µM): 1.11 | relative viability (Kobe2602 + Foretinib; first compound 0.6325 µM): 1.09 | relative viability (Kobe2602 + Foretinib; first compound 2 µM): 1.08 | relative viability (Kobe2602 + Foretinib; first compound 6.325 µM): 1.02 | relative viability (Kobe2602 + Foretinib; first compound 20 µM): 1.06 | relative viability ([1]; first compound 0.02 µM): 0.915 | relative viability ([1]; first compound 0.06325 µM): 0.978 | relative viability ([1]; first compound 0.2 µM): 0.779 | relative viability ([1]; first compound 0.6325 µM): 0.871 | relative viability ([1]; first compound 2 µM): 0.776 | relative viability (Cabozantinib + Foretinib; first compound 0.02 µM): 1.17 | relative viability (Cabozantinib + Foretinib; first compound 0.06325 µM): 1.14 | relative viability (Cabozantinib + Foretinib; first compound 0.2 µM): 1.08 | relative viability (Cabozantinib + Foretinib; first compound 0.6325 µM): 1.07 | relative viability (Cabozantinib + Foretinib; first compound 2 µM): 1.13 | relative viability (Zosuquidar + AZD7762; first compound 0.01 µM): 0.714 | relative viability (Zosuquidar + AZD7762; first compound 0.03162 µM): 0.699 | relative viability (Zosuquidar + AZD7762; first compound 0.1 µM): 0.613 | relative viability (Zosuquidar + AZD7762; first compound 0.3162 µM): 0.816 | relative viability (Zosuquidar + AZD7762; first compound 1 µM): 0.756

NCI-H647
relative viability (Kobe2602 + Foretinib; first compound 0.2 µM): 1.13 | relative viability (Kobe2602 + Foretinib; first compound 0.6325 µM): 1.29 | relative viability (Kobe2602 + Foretinib; first compound 2 µM): 1.16 | relative viability (Kobe2602 + Foretinib; first compound 6.325 µM): 1.17 | relative viability (Kobe2602 + Foretinib; first compound 20 µM): 1.12 | relative viability ([1]; first compound 0.02 µM): 0.155 | relative viability ([1]; first compound 0.06325 µM): 0.138 | relative viability ([1]; first compound 0.2 µM): 0.264 | relative viability ([1]; first compound 0.6325 µM): 0.251 | relative viability ([1]; first compound 2 µM): 0.368 | relative viability (Cabozantinib + Foretinib; first compound 0.02 µM): 1.23 | relative viability (Cabozantinib + Foretinib; first compound 0.06325 µM): 1.1 | relative viability (Cabozantinib + Foretinib; first compound 0.2 µM): 1.1 | relative viability (Cabozantinib + Foretinib; first compound 0.6325 µM): 1.14 | relative viability (Cabozantinib + Foretinib; first compound 2 µM): 0.981 | relative viability (Zosuquidar + AZD7762; first compound 0.01 µM): 0.417 | relative viability (Zosuquidar + AZD7762; first compound 0.03162 µM): 0.392 | relative viability (Zosuquidar + AZD7762; first compound 0.1 µM): 0.322 | relative viability (Zosuquidar + AZD7762; first compound 0.3162 µM): 0.681 | relative viability (Zosuquidar + AZD7762; first compound 1 µM): 0.516

NCI-H2087
relative viability (Kobe2602 + Foretinib; first compound 0.2 µM): 1.09 | relative viability (Kobe2602 + Foretinib; first compound 0.6325 µM): 1.18 | relative viability (Kobe2602 + Foretinib; first compound 2 µM): 1.07 | relative viability (Kobe2602 + Foretinib; first compound 6.325 µM): 1.11 | relative viability (Kobe2602 + Foretinib; first compound 20 µM): 1.18 | relative viability ([1]; first compound 0.02 µM): 0.163 | relative viability ([1]; first compound 0.06325 µM): 0.185 | relative viability ([1]; first compound 0.2 µM): 0.193 | relative viability ([1]; first compound 0.6325 µM): 0.168 | relative viability ([1]; first compound 2 µM): 0.158 | relative viability (Cabozantinib + Foretinib; first compound 0.02 µM): 1.17 | relative viability (Cabozantinib + Foretinib; first compound 0.06325 µM): 1 | relative viability (Cabozantinib + Foretinib; first compound 0.2 µM): 1.3 | relative viability (Cabozantinib + Foretinib; first compound 0.6325 µM): 1.2 | relative viability (Cabozantinib + Foretinib; first compound 2 µM): 0.967 | relative viability (Zosuquidar + AZD7762; first compound 0.01 µM): 1.22 | relative viability (Zosuquidar + AZD7762; first compound 0.03162 µM): 1.39 | relative viability (Zosuquidar + AZD7762; first compound 0.1 µM): 1.32 | relative viability (Zosuquidar + AZD7762; first compound 0.3162 µM): 1.41 | relative viability (Zosuquidar + AZD7762; first compound 1 µM): 1.26

HOP-62
relative viability (Kobe2602 + Foretinib; first compound 0.2 µM): 1.08 | relative viability (Kobe2602 + Foretinib; first compound 0.6325 µM): 1.16 | relative viability (Kobe2602 + Foretinib; first compound 2 µM): 1.18 | relative viability (Kobe2602 + Foretinib; first compound 6.325 µM): 1.1 | relative viability (Kobe2602 + Foretinib; first compound 20 µM): 1.08 | relative viability ([1]; first compound 0.02 µM): 1.03 | relative viability ([1]; first compound 0.06325 µM): 1 | relative viability ([1]; first compound 0.2 µM): 0.902 | relative viability ([1]; first compound 0.6325 µM): 0.881 | relative viability ([1]; first compound 2 µM): 0.838 | relative viability (Cabozantinib + Foretinib; first compound 0.02 µM): 1.17 | relative viability (Cabozantinib + Foretinib; first compound 0.06325 µM): 1.19 | relative viability (Cabozantinib + Foretinib; first compound 0.2 µM): 1.06 | relative viability (Cabozantinib + Foretinib; first compound 0.6325 µM): 1 | relative viability (Cabozantinib + Foretinib; first compound 2 µM): 1.24 | relative viability (Zosuquidar + AZD7762; first compound 0.01 µM): 0.619 | relative viability (Zosuquidar + AZD7762; first compound 0.03162 µM): 0.771 | relative viability (Zosuquidar + AZD7762; first compound 0.1 µM): 0.512 | relative viability (Zosuquidar + AZD7762; first compound 0.3162 µM): 0.802 | relative viability (Zosuquidar + AZD7762; first compound 1 µM): 0.631

NCI-H2126
relative viability (Kobe2602 + Foretinib; first compound 0.2 µM): 1.17 | relative viability (Kobe2602 + Foretinib; first compound 0.6325 µM): 1.25 | relative viability (Kobe2602 + Foretinib; first compound 2 µM): 1.07 | relative viability (Kobe2602 + Foretinib; first compound 6.325 µM): 0.996 | relative viability (Kobe2602 + Foretinib; first compound 20 µM): 1.01 | relative viability ([1]; first compound 0.02 µM): 0.871 | relative viability ([1]; first compound 0.06325 µM): 0.973 | relative viability ([1]; first compound 0.2 µM): 0.969 | relative viability ([1]; first compound 0.6325 µM): 0.89 | relative viability ([1]; first compound 2 µM): 1.1 | relative viability (Cabozantinib + Foretinib; first compound 0.06325 µM): 1.36 | relative viability (Cabozantinib + Foretinib; first compound 0.2 µM): 1.22 | relative viability (Cabozantinib + Foretinib; first compound 0.6325 µM): 1.06 | relative viability (Cabozantinib + Foretinib; first compound 2 µM): 1.17 | relative viability (Zosuquidar + AZD7762; first compound 0.01 µM): 1.03 | relative viability (Zosuquidar + AZD7762; first compound 0.03162 µM): 1 | relative viability (Zosuquidar + AZD7762; first compound 0.1 µM): 0.911 | relative viability (Zosuquidar + AZD7762; first compound 0.3162 µM): 1.04 | relative viability (Zosuquidar + AZD7762; first compound 1 µM): 1.01

NCI-H441
relative viability (Kobe2602 + Foretinib; first compound 0.2 µM): 0.884 | relative viability (Kobe2602 + Foretinib; first compound 0.6325 µM): 0.901 | relative viability (Kobe2602 + Foretinib; first compound 2 µM): 0.978 | relative viability (Kobe2602 + Foretinib; first compound 6.325 µM): 1.02 | relative viability (Kobe2602 + Foretinib; first compound 20 µM): 0.914 | relative viability ([1]; first compound 0.02 µM): 0.326 | relative viability ([1]; first compound 0.06325 µM): 0.404 | relative viability ([1]; first compound 0.2 µM): 0.306 | relative viability ([1]; first compound 0.6325 µM): 0.324 | relative viability ([1]; first compound 2 µM): 0.375 | relative viability (Cabozantinib + Foretinib; first compound 0.02 µM): 1.25 | relative viability (Cabozantinib + Foretinib; first compound 0.06325 µM): 0.989 | relative viability (Cabozantinib + Foretinib; first compound 0.2 µM): 0.986 | relative viability (Cabozantinib + Foretinib; first compound 0.6325 µM): 1.18 | relative viability (Cabozantinib + Foretinib; first compound 2 µM): 1.18 | relative viability (Zosuquidar + AZD7762; first compound 0.01 µM): 0.991 | relative viability (Zosuquidar + AZD7762; first compound 0.03162 µM): 1.33 | relative viability (Zosuquidar + AZD7762; first compound 0.1 µM): 1.09 | relative viability (Zosuquidar + AZD7762; first compound 0.3162 µM): 1.23 | relative viability (Zosuquidar + AZD7762; first compound 1 µM): 1.19

NCI-H2170
relative viability (Kobe2602 + Foretinib; first compound 0.2 µM): 0.966 | relative viability (Kobe2602 + Foretinib; first compound 0.6325 µM): 1.04 | relative viability (Kobe2602 + Foretinib; first compound 2 µM): 1.01 | relative viability (Kobe2602 + Foretinib; first compound 6.325 µM): 1.01 | relative viability (Kobe2602 + Foretinib; first compound 20 µM): 0.963 | relative viability ([1]; first compound 0.02 µM): 0.729 | relative viability ([1]; first compound 0.06325 µM): 0.952 | relative viability ([1]; first compound 0.2 µM): 0.587 | relative viability ([1]; first compound 0.6325 µM): 0.857 | relative viability ([1]; first compound 2 µM): 0.849 | relative viability (Cabozantinib + Foretinib; first compound 0.02 µM): 1.01 | relative viability (Cabozantinib + Foretinib; first compound 0.06325 µM): 0.999 | relative viability (Cabozantinib + Foretinib; first compound 0.2 µM): 1 | relative viability (Cabozantinib + Foretinib; first compound 0.6325 µM): 0.949 | relative viability (Cabozantinib + Foretinib; first compound 2 µM): 0.974 | relative viability (Zosuquidar + AZD7762; first compound 0.01 µM): 0.866 | relative viability (Zosuquidar + AZD7762; first compound 0.03162 µM): 0.916 | relative viability (Zosuquidar + AZD7762; first compound 0.1 µM): 0.776 | relative viability (Zosuquidar + AZD7762; first compound 0.3162 µM): 0.898 | relative viability (Zosuquidar + AZD7762; first compound 1 µM): 0.858
